# Tests used:
# Assay type in all cases: in vivo
# [1] = system: lambsquarters (Chenopodium album); assay: Test C preemergence; conditions: scale 0 to 100, 0 no effect, 100 complete control
# Procedure, shortened: (§1)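 Preemergence: sow in loam-sand soil and treat. Postemergence: grow in peat-moss/vermiculite medium to 2–18 cm (1–4 leaves) and spray. Compound in non-phytotoxic solvent with surfactant; keep in greenhouse 13–15 d; score visually against controls, 0 (none) to 100 (full control).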
# [2] = system: johnsongrass (Sorghum halepense); assay: Test C preemergence; conditions: scale 0 to 100, 0 no effect, 100 complete control
# Procedure, shortened: as §1
# [3] = system: oilseed rape (Brassica napus); assay: Test C preemergence; conditions: scale 0 to 100, 0 no effect, 100 complete control
# Procedure, shortened: as §1
# [4] = system: morningglory (Ipomoea coccinea); assay: Test C preemergence; conditions: scale 0 to 100, 0 no effect, 100 complete control
# Procedure, shortened: as §1
# [5] = system: waterhemp (common waterhemp, Amaranthus rudis); assay: Test C preemergence; conditions: scale 0 to 100, 0 no effect, 100 complete control
# Procedure, shortened: as §1
# [6] = system: corn (Zea mays); assay: Test C preemergence; conditions: scale 0 to 100, 0 no effect, 100 complete control
# Procedure, shortened: as §1
# [7] = system: ragweed (common ragweed, Ambrosia elatior); assay: Test C preemergence; conditions: scale 0 to 100, 0 no effect, 100 complete control
# Procedure, shortened: as §1
# [8] = system: blackgrass (Alopecurus myosuroides); assay: Test C preemergence; conditions: scale 0 to 100, 0 no effect, 100 complete control
# Procedure, shortened: as §1
# [9] = system: nutsedge, yellow (yellow nutsedge, Cyperus esculentus); assay: Test C preemergence; conditions: scale 0 to 100, 0 no effect, 100 complete control
# Procedure, shortened: as §1
# [10] = system: crabgrass, large (large crabgrass, Digitaria sanguinalis); assay: Test C preemergence; conditions: scale 0 to 100, 0 no effect, 100 complete control
# Procedure, shortened: as §1
# [11] = system: wheat (winter wheat, Triticum aestivum); assay: Test C preemergence; conditions: scale 0 to 100, 0 no effect, 100 complete control
# Procedure, shortened: as §1
# [12] = system: ryegrass, Italian (Italian ryegrass, Lolium multiflorum); assay: Test C preemergence; conditions: scale 0 to 100, 0 no effect, 100 complete control
# Procedure, shortened: as §1
# [13] = system: velvetleaf (Abutilon theophrasti); assay: Test C preemergence; conditions: scale 0 to 100, 0 no effect, 100 complete control
# Procedure, shortened: as §1
# [14] = system: Galium (catchweed bedstraw, Galium aparine); assay: Test C preemergence; conditions: scale 0 to 100, 0 no effect, 100 complete control
# Procedure, shortened: as §1
# [15] = system: soybean (Glycine max); assay: Test C preemergence; conditions: scale 0 to 100, 0 no effect, 100 complete control
# Procedure, shortened: as §1
# [16] = system: barnyardgrass (Echinochloa crus-galli); assay: Test C preemergence; conditions: scale 0 to 100, 0 no effect, 100 complete control
# Procedure, shortened: as §1
# [17] = system: ivy-leaved morning glory (Ipomoea hederacea); assay: Test G Post-Emergence Protocol
# Experimental: Seeds of corn (Zea mays), giant foxtail (Setaria faberi), barnyardgrass (Echinochloa crus-galli), ivy-leaved morning glory (Ipomoea hederacea), redroot pigweed (Amaranthus retroflexus) and velvetleaf (Abutilon theophrasti) were sown in standard soil in pots. After cultivation for 8 days under controlled conditions in a glasshouse (at 24/16° C., day/night; 14 hours light; 65% humidity), the plants were sprayed with an aqueous spray solution derived from the formulation of the technical active ingredient in acetone/water (50:50) solution containing 0.5% Tween 20 (polyoxyethylene sorbitan monolaurate, CAS RN 9005-64-5) to give a final dose of 15.625, 62.5 or 250 g/ha of test compound.
# The test plants were then grown on under controlled conditions in a glasshouse (at 24/16° C., day/night; 14 hours light; 65% humidity) and watered twice daily. After 13 days the test was evaluated (100=total damage to plant; 0=no damage to plant). A dash (-) means no test result.
compound,measurement,setting,value
CN1CC(c2cccc(OC(F)(F)C(F)F)c2)C(C(=O)Nc2ccc(F)c(F)c2F)C1=O (stereo not shown) [Compound 429],"Plant response rating, Lambsquarters",[1]; 31 g ai/ha,60
same,"Plant response rating, Lambsquarters",[1]; 62 g ai/ha,75
same,"Plant response rating, Lambsquarters",[1]; 125 g ai/ha,75
same,"Plant response rating, Lambsquarters",[1]; 250 g ai/ha,85
same,"Plant response rating, Johnsongrass",[2]; 31 g ai/ha,75
same,"Plant response rating, Johnsongrass",[2]; 62 g ai/ha,95
same,"Plant response rating, Johnsongrass",[2]; 125 g ai/ha,95
same,"Plant response rating, Johnsongrass",[2]; 250 g ai/ha,90
same,"Plant response rating, Oilseed Rape",[3]; 31 g ai/ha,80
same,"Plant response rating, Oilseed Rape",[3]; 62 g ai/ha,80
same,"Plant response rating, Oilseed Rape",[3]; 125 g ai/ha,90
same,"Plant response rating, Oilseed Rape",[3]; 250 g ai/ha,90
same,"Plant response rating, Morningglory",[4]; 31 g ai/ha,35
same,"Plant response rating, Morningglory",[4]; 62 g ai/ha,30
same,"Plant response rating, Morningglory",[4]; 125 g ai/ha,20
same,"Plant response rating, Morningglory",[4]; 250 g ai/ha,60
same,"Plant response rating, Waterhemp",[5]; 62 g ai/ha,85
same,"Plant response rating, Waterhemp",[5]; 125 g ai/ha,90
same,"Plant response rating, Waterhemp",[5]; 250 g ai/ha,90
same,"Plant response rating, Corn",[6]; 31 g ai/ha,0
same,"Plant response rating, Corn",[6]; 62 g ai/ha,40
same,"Plant response rating, Corn",[6]; 125 g ai/ha,65
same,"Plant response rating, Corn",[6]; 250 g ai/ha,90
same,"Plant response rating, Ragweed",[7]; 31 g ai/ha,0
same,"Plant response rating, Ragweed",[7]; 62 g ai/ha,40
same,"Plant response rating, Ragweed",[7]; 125 g ai/ha,75
same,"Plant response rating, Ragweed",[7]; 250 g ai/ha,75
same,"Plant response rating, Blackgrass",[8]; 31 g ai/ha,70
same,"Plant response rating, Blackgrass",[8]; 62 g ai/ha,90
same,"Plant response rating, Blackgrass",[8]; 125 g ai/ha,90
same,"Plant response rating, Blackgrass",[8]; 250 g ai/ha,95
same,"Plant response rating, Nutsedge, Yellow",[9]; 31 g ai/ha,0
same,"Plant response rating, Nutsedge, Yellow",[9]; 62 g ai/ha,0
same,"Plant response rating, Nutsedge, Yellow",[9]; 125 g ai/ha,0
same,"Plant response rating, Nutsedge, Yellow",[9]; 250 g ai/ha,0
same,"Plant response rating, Crabgrass, Large",[10]; 31 g ai/ha,95
same,"Plant response rating, Crabgrass, Large",[10]; 62 g ai/ha,98
same,"Plant response rating, Crabgrass, Large",[10]; 125 g ai/ha,98
same,"Plant response rating, Crabgrass, Large",[10]; 250 g ai/ha,98
same,"Plant response rating, Wheat",[11]; 62 g ai/ha,60
same,"Plant response rating, Wheat",[11]; 125 g ai/ha,70
same,"Plant response rating, Wheat",[11]; 250 g ai/ha,60
same,"Plant response rating, Ryegrass, Italian",[12]; 62 g ai/ha,85
same,"Plant response rating, Ryegrass, Italian",[12]; 125 g ai/ha,85
same,"Plant response rating, Ryegrass, Italian",[12]; 250 g ai/ha,65
same,"Plant response rating, Velvetleaf",[13]; 62 g ai/ha,40
same,"Plant response rating, Velvetleaf",[13]; 125 g ai/ha,30
same,"Plant response rating, Velvetleaf",[13]; 250 g ai/ha,45
same,"Plant response rating, Galium",[14]; 31 g ai/ha,100
same,"Plant response rating, Galium",[14]; 62 g ai/ha,100
same,"Plant response rating, Galium",[14]; 125 g ai/ha,100
same,"Plant response rating, Galium",[14]; 250 g ai/ha,100
same,"Plant response rating, Soybean",[15]; 125 g ai/ha,0
same,"Plant response rating, Soybean",[15]; 250 g ai/ha,10
same,"Plant response rating, Barnyardgrass",[16]; 31 g ai/ha,85
same,"Plant response rating, Barnyardgrass",[16]; 62 g ai/ha,95
same,"Plant response rating, Barnyardgrass",[16]; 125 g ai/ha,95
same,"Plant response rating, Barnyardgrass",[16]; 250 g ai/ha,98
CN1CC(c2cccc(OC(F)(F)C(F)F)c2)C(C(=O)Nc2ccccc2C(F)(F)F)C1=O (stereo not shown) [Compound 431],"Plant response rating, Lambsquarters",[1]; 31 g ai/ha,10
same,"Plant response rating, Lambsquarters",[1]; 62 g ai/ha,40
same,"Plant response rating, Lambsquarters",[1]; 125 g ai/ha,50
same,"Plant response rating, Lambsquarters",[1]; 250 g ai/ha,65
same,"Plant response rating, Johnsongrass",[2]; 31 g ai/ha,70
same,"Plant response rating, Johnsongrass",[2]; 62 g ai/ha,75
same,"Plant response rating, Johnsongrass",[2]; 125 g ai/ha,85
same,"Plant response rating, Johnsongrass",[2]; 250 g ai/ha,90
same,"Plant response rating, Oilseed Rape",[3]; 31 g ai/ha,10
same,"Plant response rating, Oilseed Rape",[3]; 62 g ai/ha,60
same,"Plant response rating, Oilseed Rape",[3]; 125 g ai/ha,85
same,"Plant response rating, Oilseed Rape",[3]; 250 g ai/ha,90
same,"Plant response rating, Morningglory",[4]; 31 g ai/ha,0
same,"Plant response rating, Morningglory",[4]; 62 g ai/ha,10
same,"Plant response rating, Morningglory",[4]; 125 g ai/ha,10
same,"Plant response rating, Morningglory",[4]; 250 g ai/ha,10
same,"Plant response rating, Waterhemp",[5]; 62 g ai/ha,75
same,"Plant response rating, Waterhemp",[5]; 125 g ai/ha,85
same,"Plant response rating, Waterhemp",[5]; 250 g ai/ha,90
same,"Plant response rating, Corn",[6]; 31 g ai/ha,0
same,"Plant response rating, Corn",[6]; 62 g ai/ha,35
same,"Plant response rating, Corn",[6]; 125 g ai/ha,50
same,"Plant response rating, Corn",[6]; 250 g ai/ha,65
same,"Plant response rating, Ragweed",[7]; 31 g ai/ha,50
same,"Plant response rating, Ragweed",[7]; 62 g ai/ha,40
same,"Plant response rating, Ragweed",[7]; 125 g ai/ha,40
same,"Plant response rating, Ragweed",[7]; 250 g ai/ha,60
same,"Plant response rating, Blackgrass",[8]; 31 g ai/ha,60
same,"Plant response rating, Blackgrass",[8]; 62 g ai/ha,85
same,"Plant response rating, Blackgrass",[8]; 125 g ai/ha,90
same,"Plant response rating, Blackgrass",[8]; 250 g ai/ha,98
same,"Plant response rating, Nutsedge, Yellow",[9]; 31 g ai/ha,0
same,"Plant response rating, Nutsedge, Yellow",[9]; 62 g ai/ha,0
same,"Plant response rating, Nutsedge, Yellow",[9]; 125 g ai/ha,0
same,"Plant response rating, Nutsedge, Yellow",[9]; 250 g ai/ha,0
same,"Plant response rating, Crabgrass, Large",[10]; 31 g ai/ha,98
same,"Plant response rating, Crabgrass, Large",[10]; 62 g ai/ha,100
same,"Plant response rating, Crabgrass, Large",[10]; 125 g ai/ha,100
same,"Plant response rating, Crabgrass, Large",[10]; 250 g ai/ha,100
same,"Plant response rating, Wheat",[11]; 62 g ai/ha,5
same,"Plant response rating, Wheat",[11]; 125 g ai/ha,70
same,"Plant response rating, Wheat",[11]; 250 g ai/ha,90
same,"Plant response rating, Ryegrass, Italian",[12]; 62 g ai/ha,10
same,"Plant response rating, Ryegrass, Italian",[12]; 125 g ai/ha,15
same,"Plant response rating, Ryegrass, Italian",[12]; 250 g ai/ha,70
same,"Plant response rating, Velvetleaf",[13]; 62 g ai/ha,25
same,"Plant response rating, Velvetleaf",[13]; 125 g ai/ha,40
same,"Plant response rating, Velvetleaf",[13]; 250 g ai/ha,30
same,"Plant response rating, Galium",[14]; 31 g ai/ha,95
same,"Plant response rating, Galium",[14]; 62 g ai/ha,90
same,"Plant response rating, Galium",[14]; 125 g ai/ha,100
same,"Plant response rating, Galium",[14]; 250 g ai/ha,90
same,"Plant response rating, Soybean",[15]; 125 g ai/ha,0
same,"Plant response rating, Barnyardgrass",[16]; 31 g ai/ha,90
same,"Plant response rating, Barnyardgrass",[16]; 62 g ai/ha,95
same,"Plant response rating, Barnyardgrass",[16]; 125 g ai/ha,95
same,"Plant response rating, Barnyardgrass",[16]; 250 g ai/ha,98
CN1C[C@H](c2cccc(C(F)(F)F)c2)[C@@H](C(=O)Nc2cccnc2F)C1=O [Compound 1397],pest or weed control at 15.625 g/ha,"[17]; Ipomoea, post-emergence, 312 h, 15.625 g ai/ha, evaluated after 13 days (100=total damage to plant; 0=no damage to plant), read-out: Morningglory, Ivy-leaved damage rating",60%
same,pest or weed control at 62.5 g/ha,"[17]; Ipomoea, post-emergence, 312 h, 62.5 g ai/ha, evaluated after 13 days, read-out: Morningglory, Ivy-leaved damage rating (100=total damage to plant; 0=no damage to plant)",60%
same,pest or weed control at 250 g/ha,"[17]; Ipomoea, post-emergence, 312 h, 250 g ai/ha, evaluated after 13 days, read-out: damage to plant, Morningglory, Ivy-leaved (100=total damage to plant; 0=no damage to plant)",70%
CN1C[C@H](c2ccc(C(F)(F)F)cc2)[C@@H](C(=O)Nc2cccc(F)n2)C1=O [Compound 1400],"Morningglory, Ivy-leaved damage rating","[17]; 15.625 g ai/ha, evaluated after 13 days (100=total damage to plant; 0=no damage to plant)",0
same,"Morningglory, Ivy-leaved damage rating (100=total damage to plant; 0=no damage to plant)","[17]; 62.5 g ai/ha, evaluated after 13 days",0
same,"damage to plant, Morningglory, Ivy-leaved (100=total damage to plant; 0=no damage to plant)","[17]; 250 g ai/ha, evaluated after 13 days",0

# From patent US12077503B2, “Substituted cyclic amides and their use as herbicides” (FMC CORPORATION, priority 2015, dated 2024)
